Laboratory results: article PMC3103600 (Journal of natural products, 2011)
Read-outs that look alike come from different tables or passages of the source.

How the values were obtained:
[1] = test system: heme-regulated eIF2α kinase (HRI); assay: Hsp90-dependent HRI maturation/activation in heme-deficient reticulocyte lysate; details: 45 min
[2] = test system: Hsp90, Hsp70 and Cdc37 with HRI/K199R; assay type: biochemical; details: low ionic strength wash
native luciferase = native luciferase (Photinus pyralis, UniProt P08659); assay: Counter-screen against native luciferase; assay type: biochemical, firefly
[3] = test system: heme-regulated eIF2α kinase (HRI); assay: Stability of [35S]HRI in reticulocyte lysate; assay type: biochemical; details: 45 min, heme-deficient lysate
[4] = target: Hsp90CT (C-terminal domain of Hsp90, amino acids 531–732) (Homo sapiens, UniProt P07900); assay: SPR binding to C-terminal domain of Hsp90
[5] = test system: Her2, Akt, Raf-1, Hsp70, Hsp90 in MCF7 cells; assay: Western blot of Hsp90 client proteins and heat shock proteins, MCF7; assay type: cell-based; details: MCF7, 36 h
[6] = target: full length Hsp90 (human Hsp90β) (Homo sapiens, UniProt P08238); assay: SPR binding to full length Hsp90; details: full length Hsp90, 25 °C
[7] = target: Hsp90NT (N-terminal domain of Hsp90α, amino acids 1–241) (Homo sapiens, UniProt P07900); assay: SPR binding to N-terminal domain of Hsp90
[8] = test system: Her2, Akt, Raf-1, Hsp70, Hsp90 in Sk-Br3 cells; assay: Western blot of Hsp90 client proteins and heat shock proteins, SkBr3; assay type: cell-based; details: Sk-Br3, 36 h

Chain of native luciferase (P08659 whole entry): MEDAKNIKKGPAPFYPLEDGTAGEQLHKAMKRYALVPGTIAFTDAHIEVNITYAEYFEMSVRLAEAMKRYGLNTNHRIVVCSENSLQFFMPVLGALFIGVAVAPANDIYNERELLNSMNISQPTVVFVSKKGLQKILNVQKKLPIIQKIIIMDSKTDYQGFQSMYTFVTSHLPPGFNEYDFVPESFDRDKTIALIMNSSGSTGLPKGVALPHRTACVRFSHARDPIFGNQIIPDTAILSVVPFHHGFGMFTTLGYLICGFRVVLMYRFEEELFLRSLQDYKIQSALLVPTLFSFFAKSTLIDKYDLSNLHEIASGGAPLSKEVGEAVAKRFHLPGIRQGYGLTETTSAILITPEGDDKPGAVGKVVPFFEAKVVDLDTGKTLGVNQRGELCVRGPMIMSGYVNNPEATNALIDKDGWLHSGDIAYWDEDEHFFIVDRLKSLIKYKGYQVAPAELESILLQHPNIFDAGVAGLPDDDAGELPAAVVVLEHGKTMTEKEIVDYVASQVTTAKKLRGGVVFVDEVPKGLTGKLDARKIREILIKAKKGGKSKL
Chain of full length Hsp90 (human Hsp90β) (P08238 whole entry, the tested form may be a part): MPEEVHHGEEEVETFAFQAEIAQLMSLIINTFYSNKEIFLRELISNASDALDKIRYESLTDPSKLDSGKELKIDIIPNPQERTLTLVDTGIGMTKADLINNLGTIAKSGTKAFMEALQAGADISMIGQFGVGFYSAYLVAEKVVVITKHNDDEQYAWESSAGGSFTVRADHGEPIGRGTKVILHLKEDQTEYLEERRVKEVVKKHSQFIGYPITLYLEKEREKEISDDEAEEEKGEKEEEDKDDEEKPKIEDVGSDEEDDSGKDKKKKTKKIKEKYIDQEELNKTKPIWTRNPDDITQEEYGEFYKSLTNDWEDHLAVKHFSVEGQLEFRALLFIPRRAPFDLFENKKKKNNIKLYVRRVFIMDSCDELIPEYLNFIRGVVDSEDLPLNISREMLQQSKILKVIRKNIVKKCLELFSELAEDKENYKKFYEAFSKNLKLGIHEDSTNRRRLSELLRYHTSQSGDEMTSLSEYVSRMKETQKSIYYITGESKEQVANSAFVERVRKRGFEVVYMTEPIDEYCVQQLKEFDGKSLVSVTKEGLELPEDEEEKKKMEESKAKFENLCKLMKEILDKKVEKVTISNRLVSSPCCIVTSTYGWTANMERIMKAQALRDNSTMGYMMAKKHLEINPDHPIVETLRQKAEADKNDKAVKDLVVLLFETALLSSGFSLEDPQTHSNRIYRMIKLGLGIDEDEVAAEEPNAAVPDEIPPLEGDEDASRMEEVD

In the case of CO[C@H]1[C@H](OC(=O)c2ccc(C)[nH]2)[C@H](O)[C@@H](Oc2ccc3c(O)c(NC(=O)c4c[nH]c(C(=O)Nc5c(O)c6ccc(O[C@H]7OC(C)(C)[C@@H](OC)[C@H](OC(=O)c8ccc(C)[nH]8)[C@@H]7O)c(C)c6oc5=O)c4C)c(=O)oc3c2C)OC1(C)C [Compound 5, coumermycin A1], the “effect on HRI maturation/activation” value ([1]; 400 µM) is reported as “also inhibited the maturation/ activation of HRI” and the “effect on binding of Hsp90, Hsp70, Cdc37 to HRI/K199R” value (“effect on binding of Hsp90, Hsp70” for short) ([2]; 400 µM) is reported as “disrupted the interaction of Hsp90, Hsp70 and Cdc37 with HRI/K199R”.
CC1=C(O)C(=O)C=C2C1=CC=C1[C@@]2(C)CC[C@@]2(C)[C@@H]3C[C@](C)(C(=O)O)CC[C@]3(C)CC[C@]12C [Compound 2, celastrol] was tested, and the “effect on HRI maturation/activation” value ([1]; 100 µM) was “inhibited the maturation/ activation of HRI”, the “effect on binding of Hsp90, Hsp70” value ([2]; 100 µM) was “disrupted the binding of Hsp90, Hsp70, and Cdc37 to HRI” and the “direct effect on the activity of native luciferase” value (native luciferase) was “Neither celastrol nor 1 had any direct effect”.
For COC1=C2C[C@@H](C)C[C@H](OC)[C@H](O)[C@@H](C)/C=C(\C)[C@H](OC(N)=O)[C@@H](OC)/C=C\C=C(/C)C(=O)NC(=CC1=O)C2=O [Compound 3, geldanamycin], the “loss of [35S]HRI compared to the DMSO control” value ([3]; 80 µM) was 0% and the “effect on HRI maturation/activation” value ([1]; 80 µM) was “inhibited the maturation/ activation of HRI”.
For [Na+].[Na+].[O]=[Mo](=[O])([O-])[O-] [molybdate, sodium molybdate], the “loss of [35S]HRI compared to the DMSO control” value ([3]; 20 mM) was 10%, the “effect on HRI maturation/activation” value ([1]; 20 mM) was “inhibited the maturation/ activation of HRI” and the “effect on binding of Hsp90, Hsp70” value ([2]; 20 mM) was “stabilized the binding of Hsp90 and Cdc37 to HRI/K199R, while not affecting the interaction of Hsp70 with HRI/K199R”.
In the case of CO[C@@H]1[C@@H](OC(N)=O)[C@@H](O)[C@H](Oc2ccc3c(O)c(NC(=O)c4ccc(O)c(CC=C(C)C)c4)c(=O)oc3c2C)OC1(C)C [Compound 4, novobiocin], the “effect on HRI maturation/activation” value ([1]; 4.0 mM) is reported as “also inhibited the maturation/ activation of HRI” and the “effect on binding of Hsp90, Hsp70” value ([2]; 4.0 mM) is reported as “disrupted the interaction of Hsp90, Hsp70 and Cdc37 with HRI/K199R”.
In the case of CC(C)=CCC[C@]1(C)C=Cc2c(O)c3c(c(CC=C(C)C)c2O1)O[C@]12C(=C[C@@H]4C[C@H]1C(C)(C)O[C@@]2(C/C=C(/C)C(=O)O)C4=O)C3=O [Compound 1, (−)-gambogic acid], the KD [4] is reported as “no binding”, the ka [4] is reported as “no binding” and the kd [4] is reported as “no binding”. For the same compound, the “depletion of Hsp90-dependent proteins Her2, Akt, Raf-1” value [5] was “deplete MCF7 and Sk-Br3 cells of Her2, Akt and Raf-1 in a concentration dependent fashion”, the “induction of Hsp90 and Hsp70 expression” value [5] was “induced Hsp90 and Hsp70 expression” and the “effect on HRI maturation/activation” value ([1]; 50 µM) was “inhibited the maturation/ activation of HRI”. The “effect on binding of Hsp90, Hsp70” value ([2]; 50 µM) was “disrupted the binding of Hsp90, Hsp70, and Cdc37 to HRI”, the kd [6] was 0.0113(4) S^−1 and the kd ([7]; 25 °C) was 0.01122(7) S^−1. For the same compound, the kd ([7]; +20 µM GA in analyte buffer) was 0.0114(7) S^−1, the “depletion of Hsp90-dependent proteins Her2, Akt, Raf-1” value [8] was “deplete MCF7 and Sk-Br3 cells of Her2, Akt and Raf-1 in a concentration dependent fashion” and the “induction of Hsp90 and Hsp70 expression” value [8] was “induced Hsp90 and Hsp70 expression”. For the same compound, the “direct effect on the activity of native luciferase” value (native luciferase) was “Neither celastrol nor 1 had any direct effect”.
